Results from US8901137B2, “Methods of treating cancer using pyridopyrimidinone inhibitors of PI3K and mTOR in combination with autophagy inhibitors” (Exelixis, Inc., priority 2010, dated 2014).

What was measured:
PDAC cell lines = experiment: Apoptosis induction in PDAC cell lines (PI/Annexin V, FACS); format: cell-based; details: representative subset of PDAC cell lines, dual staining with PI and Annexin V, FIG. 1
MiaPaCa2 cells [1] = experiment: Induction of apoptosis in MiaPaCa2 cells by FACS analysis; format: cell-based; details: 72 hours, FIG. 2A
MiaPaCa2 cells [2] = experiment: Induction of autophagy by acridine orange staining and FACS analysis; format: cell-based; details: FIG. 2B
Excerpt: Occurrence of cytoplasmic vacuoles in tumor cells treated with dual-targeted inhibitors are consistently observed. […] A variety of assays, including LC3-I to LC3-II conversion, acridin orange supravital staining, and MDC staining indicate whether treatment of pancreatic cancer cells with a compound of the invention will induce autophagy.

[3] = system: Xenograft tumors derived from BxPC3 cells; experiment: BxPC3 xenograft tumor growth in nude mice (Biological Example 8A); format: in vivo; details: BxPC3 subcutaneous flank tumors in nude mice, once daily dosing, 30 days; FIG. 4A
Description: Whether autophagy inhibition increased the activity of Compound A in vivo was explored. Xenograft tumors derived from BxPC3 cells were grown subcutaneously as flank tumors in nude mice to a size of 150 mm^3. Treatment with Compound A, alone or in combination with choloroquine, was administered for 30 days. Treatment with Compound A along and Compound A in combination with chloroquine was carried out by once daily dosing as indicated. Tumor volume was measured regularly. Tumors were harvested from euthanized mice for protein expression analyses.

BxPC-3 cells = experiment: BxPC-3 xenograft tumor growth in Nu/Nu mice (Biological Example 8B); format: in vivo; details: BxPC-3 s.c. in Nu/Nu mice; Compound A 30 mg/kg oral gavage, CQ 50 mg/kg i.p., 5 times/week, 28 days; FIG. 4B
Description: Female 7-9 weeks old Nu/Nu mice (Harlan, FoxN 1/nude) were inoculated s.c. with 10^7 BxPC-3 cells. Mice were monitored according to the protocol approved by the University of California, San Francisco Institutional Animal Care and Use Committee. When tumors reached about 100 mm^3, mice were randomly assigned to one of […] treatment groups: vehicle control, Compound A 30 mg/kg, Chloroquine (CQ) 50 mg/kg, Compound A+CQ. Compound A was solubilized in water/10 mM HCl, Compound B was dissolved in water, both drugs were administered by oral gavage once a day 5 times/week. CQ was dissolved in saline and injected i.p daily, 5 times/week. Each treatment regimen was tested in cohorts of eight mice and the dosing was continued for 28 days. Tumor sizes were measured twice weekly in two dimensions using a caliper, tumor size (mm^3) was calculated as (length×width^2)/2. Animals were monitored for toxicity by measuring body weight twice weekly and monitoring overall activity.
Dbata are expressed as means+/−standard deviation. Statistical analysis was performed by using Student's t-test (two-tailed). P values of <0.05 were considered significant.

pancreatic cancer cells = experiment: Effect of autophagy inhibitors on autophagy and apoptosis of treated cells; format: cell-based
Excerpt: We therefore tested whether inhibitors of autophagy or apoptosis could shift the cellular response from autophagy to apoptosis or vice versa.

| SMILES | apoptosis induction (PDAC cell lines) | induction of apoptosis (MiaPaCa2 cells [1]) | induction of autophagy (MiaPaCa2 cells [2]) | tumor growth (tumor volume) [3] | tumor growth (tumor size) (BxPC-3 cells) | autophagy (pancreatic cancer cells; autophagy inhibitor added to cells treated with dual-targeted inhibitor, data not shown) | fraction of cells undergoing apoptosis (pancreatic cancer cells; autophagy inhibitor added, FIG. 3: Compound A with or without CQ 5 mM, 72 hours, PI/Annexin-V FACS) |
| --- | --- | --- | --- | --- | --- | --- | --- |
| CCn1c(=O)c(-c2ccn[nH]2)cc2c(C)nc(N)nc21 [Compound A] | apoptosis induction | induction of apoptosis | induction of autophagy | no clear growth-inhibitory effect | no clear growth-inhibitory effect | – | – |
| Cn1cnc(N)c2ncnc1-2 [Example 3-MA, 3-methyladenine] | – | – | – | – | – | inhibited autophagy | significantly increased |
